According to BigSolDB 2.1:

Cn1nnc2c(C(N)=O)ncn2c1=O
solubility (mole fraction)
Settings | 273.15 K | 278.15 K | 283.15 K | 288.15 K | 293.15 K | 298.15 K | 303.15 K | 308.15 K | 313.15 K | 318.15 K
in ethanol | 6.58e-05 | 7.89e-05 | 9.48e-05 | 0.000115 | 0.000136 | 0.00016 | 0.000188 | 0.000225 | 0.000269 | 0.000313
in ethyl acetate | 8.03e-05 | 9.96e-05 | 0.00012 | 0.000144 | 0.000173 | 0.000206 | 0.000237 | 0.000277 | 0.000319 | 0.000371
in isopropanol | 2.2e-05 | 2.69e-05 | 3.4e-05 | 4.26e-05 | 5.17e-05 | 6.38e-05 | 7.8e-05 | 9.41e-05 | 0.000116 | 0.000143
in methanol | 0.000174 | 0.000217 | 0.00027 | 0.000327 | 0.00039 | 0.000459 | 0.000536 | 0.000621 | 0.00072 | 0.000838
in n-propanol | 4.28e-05 | 5.53e-05 | 6.99e-05 | 8.65e-05 | 0.000107 | 0.00013 | 0.000157 | 0.000188 | 0.000226 | 0.000271
